Data on three compounds can be found in PMC4726147, “Structural Insights into the Quaternary Catalytic Mechanism of Hexameric Human Quinolinate Phosphoribosyltransferase, a Key Enzyme in de novo NAD Biosynthesis” (Scientific Reports, 2016).

A word on the Kd: it is the constant that tells how readily two partners part at equilibrium. A higher Kd goes with weaker binding.

Holding throughout (type): binding
For test [1], the target named is T1, Quinolinate phosphoribosyltransferase (HsQPRT) (Homo sapiens, UniProt Q15274).
T1 construct: gene QPRT; full-length HsQPRT (residues 1–297), hexamer
The test is described as follows: ITC. Background: In ITC the heat of successive injections is recorded.

Test [2] addresses T1, Quinolinate phosphoribosyltransferase (HsQPRT). Briefly: co-crystal structure ([…] Å).
The target is the same in test [3]. The test is described as follows: ITC and crystal structure ([…] Å).
For test [4], the target named is T2, Quinolinate phosphoribosyltransferase (HsQPRT) NΔ9 mutant (Homo sapiens, UniProt Q15274, NΔ9).
T2 construct: gene QPRT; NΔ9, N-terminal truncated (helix α1 removed), dimer
Briefly: ITC.

T1 sequence (Q15274 whole entry, the tested form may be a part): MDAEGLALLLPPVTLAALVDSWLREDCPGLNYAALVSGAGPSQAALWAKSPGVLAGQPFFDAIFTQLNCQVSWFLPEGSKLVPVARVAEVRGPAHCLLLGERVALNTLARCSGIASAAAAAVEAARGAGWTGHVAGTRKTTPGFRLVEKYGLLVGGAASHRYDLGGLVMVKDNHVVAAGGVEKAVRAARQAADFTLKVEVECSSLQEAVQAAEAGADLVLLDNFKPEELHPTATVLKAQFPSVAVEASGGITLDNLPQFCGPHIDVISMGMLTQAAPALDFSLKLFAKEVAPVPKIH
T2 sequence (Q15274 10-297, stated change not applied): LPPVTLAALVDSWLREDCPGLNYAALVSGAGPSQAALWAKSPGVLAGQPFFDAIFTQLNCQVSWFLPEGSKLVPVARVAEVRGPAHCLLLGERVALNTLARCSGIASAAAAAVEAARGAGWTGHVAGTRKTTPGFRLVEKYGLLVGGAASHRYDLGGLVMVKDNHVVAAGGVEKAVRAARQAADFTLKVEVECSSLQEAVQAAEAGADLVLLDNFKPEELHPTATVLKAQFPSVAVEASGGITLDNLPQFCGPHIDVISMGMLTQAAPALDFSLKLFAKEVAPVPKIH

For `O=C(O)c1ccccc1C(=O)O` [phthalic acid], binding in test [1] was characterised by a dissociation constant (Kd) of 5.2 ± 0.2 µM. `O=C(O)c1ccc[n+]([C@@H]2O[C@H](COP(=O)([O-])O)[C@@H](O)[C@H]2O)c1` [NAMN, nicotinic acid mononucleotide]: in test [2], the “co-crystal structure (2.6 Å)” value was “clear density for two loops (loops L and O) and the substrate molecules (QA and NAMN) bound to the protein”. Take `O=C(O)c1cccnc1C(=O)O` [QA, quinolinic acid]: the Kd in test [3] was found to be 4.8 ± 0.4 µM; in test [4], 401 ± 56 µM.
